Experimental data as given in patent publication US10519111B2, “UV absorbing compounds, compositions comprising same and uses thereof” (CORAL SUNSCREEN PTY LTD, priority 2013, dated 2019).
“And” between values parts separate entries of the source, which are not always exact repeats. Equal entries are not always repeated.

Assay: UV absorption properties (λmax, molar extinction coefficient ε, efficiency E 1%, 1 cm)
Type: physicochemical
[1] = Table 6A, N-isobutyl-C3-benzoyl compounds
[2] = values in order of the λmax values
[3] = Table 7, values in order of the λmax values
[4] = Table 1, values in order of the λmax values

| Structure (SMILES) | UV λmax | ε (molar extinction coefficient) [2] [M⁻¹ cm⁻¹] | other results |
| --- | --- | --- | --- |
| CC(C)CN1C=C(C(=O)c2ccc(C(=O)C3=CN(CC(C)C)CCC3(C)C)cc2)C(C)(C)CC1 [drawing 88] | – | – | E (1%, 1 cm) (Table 6A): 547; ε (Table 6A): 20000 M⁻¹ cm⁻¹; λmax [1]: 320 nm |
| COc1ccc(C(=O)C2=CN(CC(C)C)CCC2(C)C)cc1 [drawing 52] | – | – | λmax (Table 2, compounds 11-13): 319 nm |
| CC1(C)CCN(C(C)(C)C)C=C1C(=O)Nc1ccc(Cc2ccc(NC(=O)C3=CN(C(C)(C)C)CCC3(C)C)cc2)cc1 [Compound 185, N,N′-(methylenebis(4,1-phenylene))bis(1-(tert-butyl)-4,4-dimethyl-1,4,5,6-tetrahydropyridine-3-carboxamide)] | 310 nm | 64589 | – |
| CC1(C)CCN(C(C)(C)C)C=C1C(=O)CC(=O)c1ccccc1 [Compound 170, 1-(1-(tert-butyl)-4,4-dimethyl-1,4,5,6-tetrahydropyridin-3-yl)-3-phenylpropane-1,3-dione] | 396 nm and 309 nm | – | – |
| C=C/C=C/C(=O)C1=CN(CC(C)C)CCC1(C)C [Compound 38, (2E/Z) 1-(1-isobutyl-4,4-dimethyl-1,4,5,6-tetrahydropyridin-3-yl)penta-2,4-dien-1-one] | 352 nm | 18000 | – |
| CC(C)CN1C=C(C(=O)CCC(=O)O)C(C)(C)CC1 [Compound 70, 4-(1-isobutyl-4,4-dimethyl-1,4,5,6-tetrahydropyridin-3-yl)-4-oxobutanoic acid] | 308 nm | – | – |
| C=C(C)C(=O)C1=CN(CC(C)C)CCC1(C)C [Compound 36, 1-(1-Isobutyl-4,4-dimethyl-1,4,5,6-tetrahydropyridin-3-yl)methylprop-2-en-1-one] | 310 nm | 18950 | – |
| CC(C)CN1C=C(S(=O)(=O)c2ccccc2)C(C)(C)CC1 [drawing 173] | – | – | E (1%, 1 cm) (Table 13A): 359; ε (Table 13A): 11000 M⁻¹ cm⁻¹; λmax (Table 13A, miscellaneous compounds): 285 nm |
| C=CCC(=O)C1=CN(CC(C)C)CCC1(C)C [drawing 110] | – | – | λmax (Table 7, unsaturated compounds): 310 nm; E (1%, 1 cm) [3]: 1102; ε [3]: 27000 M⁻¹ cm⁻¹ |
| CC1(C)CCN(c2ccc(C(C)(C)C)cc2)C=C1C(=O)Nc1ccccc1 [Compound 193, 1-(4-(tert-butyl)phenyl)-4,4-dimethyl-N-phenyl-1,4,5,6-tetrahydropyridine-3-carboxamide] | 324 nm | 35759 | – |
| COc1ccc(C(=O)C2=CN(CC(C)C)CCC2(C)C)cc1 [Compound 12, (1-isobutyl-4,4-dimethyl-1,4,5,6-tetrahydropyridin-3-yl) (4-methoxyphenyl)methanone] | 319 nm | – | shift / increase in λmax (versus base enaminoketone or alkanoyl counterparts): approximately 11 nm |
| CC1(C)CCN(C(C)(C)C)C=C1C(=O)CCCCCCCCC(=O)C1=CN(C(C)(C)C)CCC1(C)C [Compound 166, 1,10-bis(1-(tert-butyl)-4,4-dimethyl-1,4,5,6-tetrahydropyridin-3-yl)decane-1,10-dione] | 307 nm | 54797 | ε value (unit inferred): > 54000 M⁻¹ cm⁻¹ |
| Cc1ccc(N2C=C(C(=O)Nc3ccccc3)C(C)(C)CC2)cc1 [Compound 192, 4,4-dimethyl-N-phenyl-1-(p-tolyl)-1,4,5,6-tetrahydropyridine-3-carboxamide] | 323 nm | 33948 | – |
| C=CCCC(=O)C1=CN(CC(C)C)CCC1(C)C [drawing 46] | – | – | λmax (Table 1, covalently coupled compounds): 308 nm; Ε (1%, 1 cm) [4]: 1417; ε [4]: 35000 M⁻¹ cm⁻¹ |
| COc1ccc(N2C=CC(C)(C)CC2)cc1 [drawing 126] | – | – | λmax (Table 8a, N-phenyl compounds): 275 nm |
| CC(C)CN1C=C(C(=O)c2ccc(-c3ccccc3)cc2)C(C)(C)CC1 [Compound 19, [1,1′-biphenyl]-4-yl(1-isobutyl-4,4-dimethyl-1,4,5,6-tetrahydropyridin-3-yl)methanone] | 320 nm | 18000 | – |
| Cc1ccc(N2C=C(C(=O)Nc3ccc(C)c(NC(=O)C4=CN(C(C)(C)C)CCC4(C)C)c3)C(C)(C)CC2)cc1 [Compound 190, 1-(tert-butyl)-N-(5-(4,4-dimethyl-1-(p-tolyl)-1,4,5,6-tetrahydropyridine-3-carboxamido)-2-methylphenyl)-4,4-dimethyl-1,4,5,6-tetrahydropyridine-3-carboxamide] | 314 nm | 51743 | – |

| Structure (SMILES) | UV λmax | ε (molar extinction coefficient) [2] [M⁻¹ cm⁻¹] | other results |
| --- | --- | --- | --- |
| CN(C)c1ccc(N2C=C(C(=O)C(F)(F)F)C(C)(C)CC2)cc1 [Compound 196, 1-(1-(4-(dimethylamino)phenyl)-4,4-dimethyl-1,4,5,6-tetrahydropyridin-3-yl)-2,2,2-trifluoroethanone] | 354 nm | 32744 | – |
| CC(C)CN1C=C(C(=O)c2ccccc2)C(C)(C)CC1 [Compound 20, (1-isobutyl-4,4-dimethyl-1,4,5,6-tetrahydropyridin-3-yl)(phenyl)methanone] | 316 nm | 19000 | – |
| CC(C)CN1C=C(C(=O)c2ccc(-c3ccccc3)cc2)C(C)(C)CC1 [drawing 86] | – | – | E (1%, 1 cm) (Table 6A): 509; ε (Table 6A): 18000 M⁻¹ cm⁻¹; λmax [1]: 320 nm |
| CC1(C)C=CN(c2ccccc2)C=C1 [drawing 125] | – | – | E (1%, 1 cm) (Table 8a): 866; ε (Table 8a): 16000 M⁻¹ cm⁻¹; λmax (Table 8a, N-phenyl compounds): 285 nm |
| C=CC(=O)C1=CN(CC(C)C)CCC1(C)C [Compound 32, 1-(1-Isobutyl-4,4-dimethyl-1,4,5,6-tetrahydropyridin-3-yl)prop-2-en-1-one] | 331 nm | 20500 | – |
| CC1(C)CCN(c2ccc(C(C)(C)C)cc2)C=C1C(=O)Nc1ccc(NC(=O)C2=CN(c3ccc(C(C)(C)C)cc3)CCC2(C)C)cc1 [Compound 191, N,N′-(1,4-phenylene)bis(1-(4-(tert-butyl)phenyl)-4,4-dimethyl-1,4,5,6-tetrahydropyridine-3-carboxamide)] | 331 nm | 68095 | – |
| Cc1ccc(N2C=C(C(=O)C(F)(F)F)C(C)(C)CC2)cc1 [Compound 197, 1-(4,4-dimethyl-1-(p-tolyl)-1,4,5,6-tetrahydropyridin-3-yl)-2,2,2-trifluoroethanone] | 337 nm | 43513 | – |
| CC(C)CN1C=C(C(=O)c2ccc(C(=O)c3ccccc3)cc2)C(C)(C)CC1 [Compound 23, (4-benzoylphenyl)(1-isobutyl-4,4-dimethyl-1,4,5,6-tetrahydropyridin-3-yl)methanone] | 295 nm | 7500 | – |
| CCC(=O)C1=CN(c2ccccc2)CCC1(C)C [Compound 47, 1-(4,4-dimethyl-1-phenyl-1,4,5,6-tetrahydropyridin-3-yl)propan-1-one] | 321 nm | 23000 | – |
| CC(C)CN1C=C(C(=O)c2ccc(N(C)C)cc2)C(C)(C)CC1 [Compound 15, (4-(dimethylamino)phenyl)(1-isobutyl-4,4-dimethyl-1,4,5,6-tetrahydropyridin-3-yl)methanone] | 336 nm | 17000 | – |
| CC(C)CN1C=C(C(=O)c2cc(C(=O)C3=CN(CC(C)C)CCC3(C)C)cc(C(=O)C3=CN(CC(C)C)CCC3(C)C)c2)C(C)(C)CC1 [Compound 22, benzene-1,3,5-triyltris ((1-isobutyl-4,4-dimethyl-1,4,5,6-tetrahydropyridin-3-yl)methanone)] | 316 nm | 33000 | – |
| CCC(=O)C1=CN(c2ccc(C)cc2)CCC1(C)C [Compound 176, 1-(4,4-dimethyl-1-(p-tolyl)-1,4,5,6-tetrahydropyridin-3-yl)propan-1-one] | 327 nm | 34608 | – |
| CC(C)CN1C=C(C(=O)c2ccccc2)C(C)(C)CC1 [drawing 87] | – | – | E (1%, 1 cm) (Table 6A): 701; ε (Table 6A): 19000 M⁻¹ cm⁻¹; λmax [1]: 316 nm |
| CC1(C)CCN(c2ccc(C(C)(C)C)cc2)C=C1C(=O)C(c1ccccc1)c1ccccc1 [Compound 204, 1-(1-(4-(tert-butyl)phenyl)-4,4-dimethyl-1,4,5,6-tetrahydropyridine-3-yl)-2,2-diphenylethanone] | 337 nm | 17793 | ε value (unit not given): approximately 18000 |
| COc1ccc(/C=C/C(=O)C2=CN(CC(C)C)CCC2(C)C)cc1 [Compound 34, (E)-1-(1-isobutyl-4,4-dimethyl-1,4,5,6-tetrahydropyridin-3-yl)-3-(4-methoxyphenyl)prop-2-en-1-one] | 364 nm | 16150 | – |
| CC1(C)CCN(c2cccc3ccccc23)C=C1C(=O)C(F)(F)F [Compound 198, 1-(4,4-dimethyl-1-(naphthalen-1-yl)-1,4,5,6-tetrahydropyridine-3-yl)-2,2,2-trifluoroethanone] | 325 nm | – | – |
| CC1(C)CCN(C(C)(C)C)C=C1C(=O)C1=CN(C(C)(C)C)CCC1(C)C [Compound 167, bis(1-(tert-butyl)-4,4-dimethyl-1,4,5,6-tetrahydropyridin-3-yl)methanone] | 305 nm | 15425 | – |
